Measurements as given in patent publication EP1222194B1, “7-ACYLAMINO-3-HETEROARYLTHIO-3-CEPHEM CARBOXYLIC ACID ANTIBIOTICS AND PRODRUGS THEREOF” (priority 1999, dated 2001).
≈ marks a conversion by molar mass, not a printed value.

Experiments:
[1] = test system: S. haemolyticus 05 (Meth^R); experiment: Broth microdilution MIC (NCCLS); assay type: cell-based; conditions: Staphylococcus haemolyticus, Mueller-Hinton Broth, 24 h at 35 °C
Description: (§1) Compounds were evaluated for antimicrobial activity against a panel of bacterial strains using a broth microdilution assay performed as recommended by the NCCLS (1). The minimum inhibitory concentration (MIC) was defined as the lowest concentration of drug which prevented the growth of the bacteria. The following 16 organisms constituted the primary panel of evaluation:
(§2) For this primary panel, the assay was performed in Mueller-Hinton Broth (MHB) with a final bacterial inoculum of 5 x 10^5 CFU/mL (from an early-log phase culture) and a final volume of 100 µL. Control drugs, including imipenem, vancomycin, Penicillin G, dicloxacillin (vs. MSSA ATCC29213 only), and new compounds were prepared at a concentration equivalent to 2-fold the desired final concentration. Dilution of compounds were prepared directly in the plates by serial 2-fold dilution using a multichannel pipette. Positive and negative growth control were included in each plate.
(§3) The bacterial inocula were prepared as follows. For each strain one isolated colony was used to inoculate a volume of 8 mL of Mueller-Hinton broth and these cultures were incubated overnight (20h) at 35 °C in a shaking incubator. At the exception of Enterococcus strains, culture were then diluted 1:10 and allowed to grow for an additional one hour at 35 °C in a shaking incubator. The inocula were prepared by diluting the early log-phase (1h) cultures 1:1000 with fresh Mueller-Hinton broth. E. faecium and E. faecalis were prepared by diluting overnight cultures 1:333 and 1:666, respectively, with fresh Mueller-Hinton broth . A volume of 50 µL of the inocula was added to each well. […] The exact inocula were determined by applying […] of 10-fold serial dilution of the bacterial suspensions on TSA. After overnight incubation at 35 °C, colony forming units were manually counted.
(§4) Microtiter plates were incubated during 24 h at 35 °C and were read using a microtiterplate reader (Molecular Devices) at 650 nm as well as by visual observation using a microtiterplate reading mirror.

P. aeruginosa ATCC 27853 = experiment: Broth microdilution MIC (NCCLS); assay type: cell-based; conditions: Pseudomonas aeruginosa, ATCC27853, Mueller-Hinton Broth, 24 h at 35 °C
Description: as §1, §2, §3, §4

[2] = test system: S. aureus ATCC 33593 (Meth^R); experiment: Broth microdilution MIC (NCCLS); assay type: cell-based; conditions: Staphylococcus aureus, ATCC33593, Mueller-Hinton Broth, 24 h at 35 °C
Description: as §1, §2, §3, §4

E. faecium VanA (Van^R) = experiment: Broth microdilution MIC (NCCLS); assay type: cell-based; conditions: Enterococcus faecium, Mueller-Hinton Broth, 24 h at 35 °C
Description: as §1, §2, §3, §4

[3] = test system: S. aureus 76 (Meth^R)(lac^+); experiment: Broth microdilution MIC (NCCLS); assay type: cell-based; conditions: Staphylococcus aureus, Mueller-Hinton Broth, 24 h at 35 °C
Description: as §1, §2, §3, §4

[4] = test system: S. aureus ATCC 13709 (Meth^S); experiment: Broth microdilution MIC (NCCLS); assay type: cell-based; conditions: Staphylococcus aureus, ATCC13709, Mueller-Hinton Broth, 24 h at 35 °C
Description: as §1, §2, §3, §4

E. faecium A491 (Amp^R) = experiment: Broth microdilution MIC (NCCLS); assay type: cell-based; conditions: Enterococcus faecium, Mueller-Hinton Broth, 24 h at 35 °C
Description: as §1, §2, §3, §4

[5] = test system: S. aureus Spain #356 (Meth^R); experiment: Broth microdilution MIC (NCCLS); assay type: cell-based; conditions: Staphylococcus aureus, Mueller-Hinton Broth, 24 h at 35 °C
Description: as §1, §2, §3, §4

[6] = Serum binding determination by ultrafiltration and HPLC; assay type: in vitro ADME; conditions: % of compound bound to serum as determined by HPLC
Description: The more accurate measurement of binding of selected cephalosporin compounds was performed using HPLC as described below. […] Serum is placed in a shaking water bath preheated to 37 ± 2 °C for 5 to 10 minutes to heat serum to 37 °C. Serum pH is measured and recorded, while serum is 37 °C using pH paper. Measurements are taken twice, 3 minutes apart. If the pH is not 7.4 ± 0.4 then the pH is adjusted by blowing 5% CO2/95% O2 over the serum. After blowing for several minutes, serum is heated to 37 °C and measurements are taken twice, 3 minutes apart using pH paper to determine the pH. Store at 4 °C. The serum is stable for 7 days. Always check the pH before each use. • 2. Before any centrifugation, the centrifuge temperature must be adjusted to 25 ± 2 °C. Preheat the centrifuge by spinning for 45 minutes at the same speed to be used in the assay (1900 g) with two tubes of water in the rotor and the temperature set to 25 °C. When the centrifuge stops immediately check the temperature of the tubes of water with a calibrated thermometer. The temperature of the tubes of water must be 25 ± 2 °C. […] Continue spinning and measuring the temperature and adjusting the setting until the temperature is 25 ± 2 °C. • 3. Prepare blank ultrafiltrate by pipetting blank pH 7.4 serum into an Amicon Centrifree Micropartition devices, centrifuge: fixed angle rotor, 1900 g, 25 °C for 20 minutes. Heat ultrafiltrate in a shaking water bath preheated to 37 °C. Measure ultrafiltrate pH and adjust to the pH of the serum (7.4 ± 0.2). • 4. Pipette 190 ul of blank ultrafiltrate into a set of labeled 1.7 mL polypropylene microfuge tubes for 3 of each level. Pipette 10 µL of the appropriate standard stock 50, 200, 1000 µg/mL to make standards 2.5, 10, and 50 µg/mL respectively. Vortex each tube well. One set of the standard samples are mixed 1:1 with 0.2 M acetic acid and injected onto the HPLC (MSTD). These samples are the membrane standards and will be used to compare to the other standards. Pipette 190 ul of ultrafiltrate and spike with 10 ul of whatever solution (e.g. water) the standards are prepared in to make the zero standard. • 5. Pipette 475 µL of blank heated pH 7.4 serum into a set of labeled 1.7 mL polypropylene microfuge tubes for 2 of each (Serum A and Serum B). Pipette 25 µL of the 1000 µg/mL standard stock into each tube, vortex each tube well to make serum standard 50 µg/mL. Remove 100 µL of serum and deproteinate with 200 µL 4% TCA while vortexing to make serum time 0 (serum 50, T0). Place serum tubes in a shaking water bath at 37 °C for 10 minutes. Pipet 100 µL of serum out and deproteinate with 200 µL 4% TCA, to make serum time 10 min (serum 50, T10). Pipet 200 ul serum standard 50 µg/mL into an ultrafiltration device, which is not treated with TCA, to determine free drug in samples (Rat Serum 50). • 6. Transfer serum and standard samples to labeled Amicon Centrifree Micropartition filters, and centrifuge: 1900 g, 25 °C for 10 minutes. The extracted serum samples (T0 and T 10) are spun down and supernatant is loaded into HPLC vials. • 7. 100 µL of ultrafiltrate sample and 100 µL of 0.2 M acetic acid were mixed together to stabilize the compound in ultrafiltrate. • 8. Transfer entire stabilized ultrafiltrate solution to a labeled autoinjector HPLC vial cap with Teflon septa, and inject on HPLC.
Peak height or area is used in a weighted linear regression.

S. aureus ATCC 29213 = experiment: Broth microdilution MIC (NCCLS); assay type: cell-based; conditions: Staphylococcus aureus, ATCC29213, Mueller-Hinton Broth, 24 h at 35 °C
Description: as §1, §2, §3, §4

Row | SMILES | MIC [1] | MIC (P. aeruginosa ATCC 27853) | MIC [2] | MIC (E. faecium VanA (Van^R)) | MIC [3] | MIC [4] | MIC (E. faecium A491 (Amp^R)) | MIC [5] | fraction unbound ([6]; rat serum) | fraction unbound ([6]; rhesus monkey) | MIC (S. aureus ATCC 29213)
1 | NCCSCc1ncccc1SC1=C(C(=O)O)N2C(=O)[C@@H](NC(=O)/C(=N\O)c3nc(N)sc3Cl)[C@H]2SC1 [Cmpd 1, (7R)-7-[(Z)-2-(2-amino-5-chlorothiazol-4-yl)-2-(hydroxyimino)acetamido]-3-[2-(2-aminoethylthiomethyl)pyrid-3-ylthio]-3-cephem-4-carboxylic acid] | 1 µg/mL (≈ 1.66 µM) | 32 µg/mL (≈ 53.1 µM) | 1 µg/mL (≈ 1.66 µM) | 1 µg/mL (≈ 1.66 µM) | 1 µg/mL (≈ 1.66 µM) | 0.13 µg/mL (≈ 0.216 µM) | 8 µg/mL (≈ 13.3 µM) | 1 µg/mL (≈ 1.66 µM) | 0.15 |  | 
2 | NCCSCc1ncccc1SC1=C(C(=O)O)N2C(=O)[C@@H](NC(=O)/C(=N\O)c3nsc(N)n3)[C@H]2SC1 [Cmpd 2, (7R)-7-[(Z)-2-(5-amino-1,2,4-thiadiazol-3-yl)-2-(hydroxyimino)acetamido]-3-[2-(2-aminoethylthiomethyl)pyrid-3-ylthio]-3-cephem-4-carboxylic acid] | 2 µg/mL (≈ 3.52 µM) | > 32 µg/mL | 1 µg/mL (≈ 1.76 µM) | 2 µg/mL (≈ 3.52 µM) | 1 µg/mL (≈ 1.76 µM) |  | > 32 µg/mL | 1 µg/mL (≈ 1.76 µM) | 0.26 | 0.19 | 
3 | N=C(N)NCCSCc1ncccc1SC1=C(C(=O)O)N2C(=O)[C@@H](NC(=O)/C(=N\O)c3nsc(N)n3)[C@H]2SC1 [Cmpd 2-R, (7R)-7-[(Z)-2-(5-amino-1,2,4-thiadiazol-3-yl)-2-(hydroxyimino)acetamido]-3-[2-(2-guanidinoethylthiomethyl)pyrid-3-ylthio]-3-cephem-4-carboxylic acid] | 2 µg/mL (≈ 3.27 µM) | > 32 µg/mL | 1 µg/mL (≈ 1.64 µM) | 1 µg/mL (≈ 1.64 µM) | 1 µg/mL (≈ 1.64 µM) | 0.13 µg/mL (≈ 0.213 µM) | 32 µg/mL (≈ 52.4 µM) | 1 µg/mL (≈ 1.64 µM) |  |  | 0.13 µg/mL (≈ 0.213 µM)
4 | N=C(N)NCCSCc1ncccc1SC1=C(C(=O)O)N2C(=O)[C@@H](NC(=O)/C(=N\O)c3nc(N)sc3Cl)[C@H]2SC1 [Cmpd 2-S, (7R)-7-[(Z)-2-(2-amino-5-chlorothiazol-4-yl)-2-(hydroxyimino)acetamido]-3-[2-(2-guanidinoethylthiomethyl)pyrid-3-ylthio]-3-cephem-4-carboxylic acid] | 1 µg/mL (≈ 1.55 µM) | > 32 µg/mL | 0.5 µg/mL (≈ 0.776 µM) | 0.5 µg/mL (≈ 0.776 µM) | 0.5 µg/mL (≈ 0.776 µM) | 0.06 µg/mL (≈ 0.0931 µM) | 4 µg/mL (≈ 6.21 µM) | 0.5 µg/mL (≈ 0.776 µM) | 0.24 | 0.12 | 0.13 µg/mL (≈ 0.202 µM)
5 | NCCSCc1ccncc1SC1=C(C(=O)O)N2C(=O)[C@@H](NC(=O)/C(=N\O)c3nc(N)sc3Cl)[C@H]2SC1 [Cmpd 3, (7R)-7-[(Z)-2-(2-amino-5-chlorothiazol-4-yl)-2-(hydroxyimino)acetamido]-3-[4-(2-aminoethylthiomethyl)pyrid-3-ylthio]-3-cephem-4-carboxylic acid] | 2 µg/mL (≈ 3.32 µM) | 32 µg/mL (≈ 53.1 µM) | 1 µg/mL (≈ 1.66 µM) | 2 µg/mL (≈ 3.32 µM) | 1 µg/mL (≈ 1.66 µM) | 0.13 µg/mL (≈ 0.216 µM) | 32 µg/mL (≈ 53.1 µM) | 1 µg/mL (≈ 1.66 µM) | 0.03 | 0.03 | 0.13 µg/mL (≈ 0.216 µM)
